Assay results published in the supplement of paper PMC10307832.

Legend:
Assay in all cases: relative viability (nuclei count vs DMSO), 5 days (fraction); higher = more cells survive
[1] = compound: CC1(C)CCC(CN2CCN(c3ccc(C(=O)NS(=O)(=O)c4ccc(NCC5CCOCC5)c([N+](=O)[O-])c4)c(Oc4cnc5[nH]ccc5c4)c3)CC2)=C(c2ccc(Cl)cc2)C1 [Venetoclax]
In short: (§1)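 Viability was defined as treated-well nuclei divided by vehicle-well nuclei, with the median taken over replicate plates. Cells from lung cancer lines sat overnight at 37 °C in 1536-well plates, received five √10-spaced library-drug doses by pinning on vehicle-anchored plates, and grew 5 days without medium change before one-step fixation, permeabilisation and Hoechst staining, 4× imaging and MetaXpress nuclear counts. Only plates with control CV under 25% and at least one doubling were kept.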

[2] = compound: Cn1cnc2c(F)c(Nc3ccc(Br)cc3Cl)c(C(=O)NOCCO)cc21 [Selumetinib]
In short: as §1

[3] = compound: CC1(C)CCC(CN2CCN(c3ccc(C(=O)NS(=O)(=O)c4ccc(NCC5CCOCC5)c([N+](=O)[O-])c4)c(Oc4cnc5[nH]ccc5c4)c3)CC2)=C(c2ccc(Cl)cc2)C1 [Venetoclax] + Cc1nc(NC(=O)N2CCC[C@H]2C(N)=O)sc1-c1ccnc(C(C)(C)C(F)(F)F)c1 [Alpelisib] (partner 2 µM)
In short: (§2)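 For relative viability, nuclei counts in treated wells were divided by those in vehicle wells. Lung cancer cell lines had been pin-tool dosed in 1536-well plates the day after seeding and cultured for 5 days, then fixed and stained in one step (final 0.05% Triton X-100, 1% formaldehyde, 1 ug/ml Hoechst) and imaged at 4×. Doses were one drug alone or a fixed anchor-drug dose plus five library-drug doses (not always all listed) in √10 steps, and values are duplicate-plate medians.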

[4] = compound: Cn1cnc2c(F)c(Nc3ccc(Br)cc3Cl)c(C(=O)NOCCO)cc21 [Selumetinib] + Nc1nc2[nH]cc(CCc3ccc(C(=O)N[C@@H](CCC(=O)O)C(=O)O)cc3)c2c(=O)[nH]1 [Pemetrexed] (partner 0.2 µM)
In short: as §2

Cell Line	relative viability ([1]; 0.01 µM)	relative viability ([1]; 0.03162 µM)	relative viability ([1]; 0.1 µM)	relative viability ([1]; 0.3162 µM)	relative viability ([1]; 1 µM)	relative viability ([2]; 0.02 µM)	relative viability ([2]; 0.06325 µM)	relative viability ([2]; 0.2 µM)	relative viability ([2]; 0.6325 µM)	relative viability ([3]; first compound 0.01 µM)	relative viability ([3]; first compound 0.03162 µM)	relative viability ([3]; first compound 0.1 µM)	relative viability ([3]; first compound 0.3162 µM)	relative viability ([3]; first compound 1 µM)	relative viability ([4]; first compound 0.02 µM)	relative viability ([4]; first compound 0.06325 µM)	relative viability ([4]; first compound 0.2 µM)	relative viability ([4]; first compound 0.6325 µM)
NCI-H661	0.964	1.07	0.949	0.995	0.966	1.01	0.954	0.979	1	0.597	1.11	0.878	0.569	0.48	0.955	0.875	0.92	0.872
HCC-827	1.03	1.07	0.924	1.02	1.04	1.03	1.06	0.994	0.941	0.954	0.977	1	0.976	0.994	0.25	0.277	0.269	0.288
NCI-H1915	0.954	1.03	0.937	0.991	0.92	1.07	0.84	0.666	0.581	1.03	1.05	1.02	1.01	1.06	0.519	0.449	0.533	0.373
NCI-H441	0.952	1.08	0.97	0.974	0.865	1.18	0.922	0.827	0.649	0.828	0.705	0.821	0.899	0.608	0.283	0.248	0.275	0.308
RERF-LC-KJ	0.987	1.06	0.972	0.909	0.926	1	0.936	0.968	0.886	0.769	0.871	0.736	0.91	0.779	0.429	0.459	0.492	0.472
NCI-H3122	1.06	1	0.967	0.962	0.983	0.846	0.75	0.697	0.67	0.874	0.751	0.757	0.731	0.884	0.181	0.171	0.156	0.169
NCI-H2347	1.06	1.12	0.965	0.978	0.977	0.917	0.667	0.492	0.386	1.04	1.04	1.06	1	1.04	0.425	0.402	0.399	0.392
NCI-H1651	1.05	1.02	0.971	0.926	0.904	1.03	0.913	0.93	0.963	0.973	0.949	0.959	0.987	0.905	0.623	0.57	0.596	0.626
NCI-H1793	0.933	0.993	0.787	0.887	0.784	0.709	0.682	0.561	0.457	0.8	0.737	0.595	0.711	0.613	0.782	0.601	0.435	0.517
EKVX	0.998	1	0.913	0.975	0.937	0.784	0.775	0.645	0.565	0.82	1	0.871	0.982	0.786	0.342	0.361	0.323	0.307
NCI-H1437	0.971	1.04	0.989	0.957	0.949	0.911	0.817	0.703	0.53	0.985	0.989	1.05	0.938	0.926	0.302	0.253	0.246	0.259
NCI-H23	1	1.06	0.85	1.07	0.877	1.05	0.78	0.758	0.674	0.658	0.62	0.64	0.644	0.546	0.811	0.43	0.465	0.529
EPLC-272H	0.874	1.09	0.934	1.03	0.888	0.875	0.774	0.614	0.648	–	0.95	0.986	1.11	0.977	0.317	0.375	0.326	0.34
NCI-H358	1.04	0.916	0.898	0.975	0.863	0.618	0.456	0.373	0.31	0.769	0.828	0.786	0.903	0.839	0.173	0.165	0.144	0.177
H3255	1	1.04	0.98	1.01	0.933	0.983	0.914	0.944	0.93	0.702	0.671	0.686	0.891	0.686	0.564	0.571	0.552	0.549
SK-LU-1	0.953	1.16	0.991	1.01	1.02	1.07	0.904	0.8	0.484	0.899	1.15	0.855	0.981	0.854	1	0.978	0.862	0.614
